Test results: US7517874B2 (priority 2007, dated 2009)
Like-named read-outs stand apart in the source and are kept apart here.

Assays:
[1] = molecular target: human CB1 receptor (hCB1) (Homo sapiens, UniProt P21554); assay: cell-based; assay type: cell-based
Outline: (§1)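 Agonism or inverse agonism was assessed as change in intracellular cAMP in CHO-K1 cells expressing human CB1 or rat CB2 (genomic DNA, pcDNA3.1).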

rat CB2 receptor (rCB2) = molecular target: T1, rat CB2 receptor (rCB2) (Rattus norvegicus, UniProt Q9QZN9); assay: cell-based; assay type: cell-based; conditions: agonist or inverse agonist at rCB2
T1 sequence (Q9QZN9 1-360): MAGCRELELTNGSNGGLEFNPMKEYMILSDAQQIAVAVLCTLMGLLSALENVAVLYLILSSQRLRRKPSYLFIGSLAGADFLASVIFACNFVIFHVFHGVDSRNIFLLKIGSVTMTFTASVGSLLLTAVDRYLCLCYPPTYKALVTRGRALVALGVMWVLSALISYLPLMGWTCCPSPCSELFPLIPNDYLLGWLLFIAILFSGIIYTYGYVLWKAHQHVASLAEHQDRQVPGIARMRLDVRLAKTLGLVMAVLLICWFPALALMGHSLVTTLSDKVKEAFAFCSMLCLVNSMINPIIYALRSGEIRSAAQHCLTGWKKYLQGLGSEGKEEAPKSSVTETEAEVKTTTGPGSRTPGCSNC
Outline: as §1

[2] = groups >100 nM-10 μM and >10 μM, cAMP, CHO-K1 hCB1, read-out: EC50 HCB1

human CB1 receptor (hCB1), sequence (P21554 whole entry): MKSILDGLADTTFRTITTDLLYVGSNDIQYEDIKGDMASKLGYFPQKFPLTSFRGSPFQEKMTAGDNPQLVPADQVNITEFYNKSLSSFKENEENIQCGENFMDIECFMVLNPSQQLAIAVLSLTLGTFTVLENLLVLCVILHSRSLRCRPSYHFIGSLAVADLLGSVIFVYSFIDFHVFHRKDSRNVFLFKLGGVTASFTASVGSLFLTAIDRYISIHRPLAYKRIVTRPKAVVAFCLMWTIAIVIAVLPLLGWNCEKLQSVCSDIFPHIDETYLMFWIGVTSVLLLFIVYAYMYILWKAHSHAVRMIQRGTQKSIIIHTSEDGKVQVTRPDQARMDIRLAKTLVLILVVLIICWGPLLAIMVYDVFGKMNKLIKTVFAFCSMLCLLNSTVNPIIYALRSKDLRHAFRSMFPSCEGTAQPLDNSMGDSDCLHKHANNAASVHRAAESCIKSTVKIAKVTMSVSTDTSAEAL

Compound | EC50 [1] [nM] | +/− RCB2 (rat CB2 receptor (rCB2)) | EC50 [1, 2] [nM]
CCN1CCn2c(-c3ccccc3)nc(C(=O)N[C@@H](C)c3ccccc3)c2C1 [Compound 147, (S)-7-ethyl-3-phenyl-N-(1-phenylethyl)-5,6,7,8-tetrahydroimidazo[1,5-a]pyrazine-1-carboxamide] | > 10000 | − | 
CNC(=O)[C@@H](NC(=O)c1nc(-c2ccccc2)n2c1CN(CC(C)C)CC2)C(C)(C)C [Compound 148, (S)-N-(3,3-dimethyl-1-(methylamino)-1-oxobutan-2-yl)-7-isobutyl-3-phenyl-5,6,7,8-tetrahydroimidazo[1,5-a]pyrazine-1-carboxamide] | > 10000 | − | 
CCN1CCn2c(-c3ccccc3)nc(C(=O)N[C@H](C(=O)NC)C(C)(C)C)c2C1 [Compound 149, (S)-N-(3,3-dimethyl-1-(methyalmino)-1-oxobutan-2-yl)-7-ethyl-3-phenyl-5,6,7,8-tetrahydroimidazo[1,5-a]pyrazine-1-carboxamide] | > 10000 | − | 
CC(C)CN1CCn2c(-c3ccccc3)nc(C(=O)Nc3ccccc3)c2C1 [Compound 150, 7-isobutyl-N,3-diphenyl-5,6,7,8-tetrahydroimidazo[1,5-a]pyrazine-1-carboxamide] | > 10000 | − | 
O=C(Nc1ccccc1)c1nc(-c2ccccc2)n2c1CN(CCO)CC2 [Compound 151, 7-(2-hydroxyethyl)-N,3-diphenyl-5,6,7,8-tetrahydroimidazo[1,5-a]pyrazine-1-carboxamide] |  | − | > 10000
CCN1CCn2c(-c3ccccc3)nc(C(=O)Nc3ccccc3)c2C1 [Compound 152, 7-ethyl-N,3-diphenyl-5,6,7,8-tetrahydroimidazo[1,5-a]pyrazine-1-carboxamide] | > 10000 | − | 
CNC(=O)[C@@H](NC(=O)c1nc(-c2ccccc2)n2c1CN(CCO)CC2)C(C)(C)C [Compound 153, (S)-N-(3,3-dimethyl-1-(methylamino)-1-oxobutan-2-yl)-7-(2-hydroxyethyl)-3-phenyl-5,6,7,8-tetrahydroimidazo[1,5-a]pyrazine-1-carboxamide] | > 10000 | − | 
CCCN1CCn2c(-c3ccccc3)nc(C(=O)Nc3ccccc3)c2C1 [Compound 154, N,3-diphenyl-7-propyl-5,6,7,8-tetrahydroimidazo[1,5-a]pyrazine-1-carboxamide] | > 10000 | − | 
CC(C)CN1CCn2c(-c3ccccc3)nc(C(=O)NN3CCCCC3)c2C1 [Compound 155, 7-isobutyl-3-phenyl-N-(piperidin-1-yl)-5,6,7,8-tetrahydroimidazo[1,5-a]pyrazine-1-carboxamide] | > 10000 | − | 
O=C(NN1CCCCC1)c1nc(-c2ccccc2)n2c1CN(CCO)CC2 [Compound 156, 7-(2-hydroxyethyl)-3-phenyl-N-(piperidin-1-yl)-5,6,7,8-tetrahydroimidazo[1,5-a]pyrazine-1-carboxamide] |  | − | > 10000
CC(C)CCNC(=O)c1nc(-c2ccc(Cl)cc2)n2c1CN(CC(C)C)CC2 [Compound 157, 3-(4-chlorophenyl)-7-isobutyl-N-isopentyl-5,6,7,8-tetrahydroimidazo[1,5-a]pyrazine-1-carboxamide] | > 10000 | − | 
CCN1CCn2c(-c3ccc(Cl)cc3)nc(C(=O)NCCC(C)C)c2C1 [Compound 158, 3-(4-chlorophenyl)-7-ethyl-N-isopentyl-5,6,7,8-tetrahydroimidazo[1,5-a]pyrazine-1-carboxamide] | > 10000 | − | 
CC(C)CCNC(=O)c1nc(-c2ccc(Cl)cc2)n2c1CN(CCO)CC2 [Compound 159, 3-(4-chlorophenyl)-7-(2-hydroxyethyl)-N-isopentyl-5,6,7,8-tetrahydroimidazo[1,5-a]pyrazine-1-carboxamide] |  | − | > 10000
